# According to patent US5591821A (priority 1993, dated 1997):
# Molecular target: GVIA high affinity site, the N-type Ca^2+ channel (Rattus norvegicus, UniProt Q02294)
# Type: binding
# Sequence of GVIA high affinity site, the N-type Ca^2+ channel (Q02294 whole entry, looked up): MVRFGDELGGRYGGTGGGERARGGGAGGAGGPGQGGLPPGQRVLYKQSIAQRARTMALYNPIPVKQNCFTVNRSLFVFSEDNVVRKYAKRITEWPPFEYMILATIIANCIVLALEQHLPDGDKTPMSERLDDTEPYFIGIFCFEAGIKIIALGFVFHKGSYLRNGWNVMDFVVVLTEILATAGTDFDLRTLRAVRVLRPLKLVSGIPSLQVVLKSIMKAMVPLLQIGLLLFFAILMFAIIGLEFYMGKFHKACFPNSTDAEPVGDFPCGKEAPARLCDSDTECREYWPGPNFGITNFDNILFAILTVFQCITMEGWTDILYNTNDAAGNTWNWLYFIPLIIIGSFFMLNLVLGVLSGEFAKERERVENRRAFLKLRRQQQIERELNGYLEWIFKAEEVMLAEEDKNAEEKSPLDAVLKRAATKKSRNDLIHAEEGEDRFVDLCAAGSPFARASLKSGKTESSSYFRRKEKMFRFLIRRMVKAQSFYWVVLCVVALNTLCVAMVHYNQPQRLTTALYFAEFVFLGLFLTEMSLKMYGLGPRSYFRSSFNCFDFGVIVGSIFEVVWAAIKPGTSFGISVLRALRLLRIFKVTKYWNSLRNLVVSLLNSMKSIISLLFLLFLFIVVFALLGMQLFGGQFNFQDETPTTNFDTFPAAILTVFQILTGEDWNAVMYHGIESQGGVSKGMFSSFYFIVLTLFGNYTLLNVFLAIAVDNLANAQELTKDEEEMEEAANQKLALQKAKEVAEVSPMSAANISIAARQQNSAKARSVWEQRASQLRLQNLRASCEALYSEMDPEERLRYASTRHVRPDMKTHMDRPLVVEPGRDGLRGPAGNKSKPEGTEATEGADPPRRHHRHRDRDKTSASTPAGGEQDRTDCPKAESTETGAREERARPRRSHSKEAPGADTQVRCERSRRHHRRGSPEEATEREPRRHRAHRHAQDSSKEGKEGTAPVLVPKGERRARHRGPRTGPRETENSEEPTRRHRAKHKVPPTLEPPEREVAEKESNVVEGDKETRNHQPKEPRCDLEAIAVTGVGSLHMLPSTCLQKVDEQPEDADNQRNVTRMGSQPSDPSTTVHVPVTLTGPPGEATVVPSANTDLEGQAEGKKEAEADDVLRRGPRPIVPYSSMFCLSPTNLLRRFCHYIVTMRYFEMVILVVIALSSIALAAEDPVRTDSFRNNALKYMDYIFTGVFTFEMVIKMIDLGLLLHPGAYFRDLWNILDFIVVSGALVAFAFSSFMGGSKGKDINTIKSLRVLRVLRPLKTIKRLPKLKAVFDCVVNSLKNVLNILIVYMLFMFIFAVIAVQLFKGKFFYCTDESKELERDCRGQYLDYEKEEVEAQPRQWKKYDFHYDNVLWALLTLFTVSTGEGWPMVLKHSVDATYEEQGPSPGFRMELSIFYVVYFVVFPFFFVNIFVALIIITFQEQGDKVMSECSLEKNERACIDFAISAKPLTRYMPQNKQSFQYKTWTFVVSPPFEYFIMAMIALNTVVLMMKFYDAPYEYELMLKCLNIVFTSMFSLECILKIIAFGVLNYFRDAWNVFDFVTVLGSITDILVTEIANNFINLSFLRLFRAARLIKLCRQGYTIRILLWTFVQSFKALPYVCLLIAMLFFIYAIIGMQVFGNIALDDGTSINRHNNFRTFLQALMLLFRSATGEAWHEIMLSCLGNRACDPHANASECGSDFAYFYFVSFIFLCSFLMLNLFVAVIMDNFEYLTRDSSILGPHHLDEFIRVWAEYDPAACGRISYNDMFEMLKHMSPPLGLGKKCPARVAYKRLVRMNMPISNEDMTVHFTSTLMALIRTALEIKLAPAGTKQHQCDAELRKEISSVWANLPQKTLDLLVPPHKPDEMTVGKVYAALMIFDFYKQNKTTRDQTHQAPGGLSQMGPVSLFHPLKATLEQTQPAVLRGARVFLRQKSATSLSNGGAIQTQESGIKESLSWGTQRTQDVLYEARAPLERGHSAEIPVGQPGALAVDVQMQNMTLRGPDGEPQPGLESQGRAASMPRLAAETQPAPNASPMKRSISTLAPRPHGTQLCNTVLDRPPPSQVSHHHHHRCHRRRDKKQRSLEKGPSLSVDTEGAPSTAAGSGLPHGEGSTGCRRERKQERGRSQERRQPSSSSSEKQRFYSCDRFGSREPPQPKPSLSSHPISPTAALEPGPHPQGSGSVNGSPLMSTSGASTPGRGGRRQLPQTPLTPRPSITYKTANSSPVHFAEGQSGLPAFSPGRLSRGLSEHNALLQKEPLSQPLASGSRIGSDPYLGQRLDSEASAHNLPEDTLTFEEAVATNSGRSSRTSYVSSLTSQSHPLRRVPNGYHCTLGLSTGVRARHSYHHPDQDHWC
substance,measurement,value
ω-agatoxin IVA,Competition for / displacement of 125I-GVIA binding,did not
